Measured values from patent US11866450B2, “Modulators of Cystic Fibrosis Transmembrane Conductance regulator, pharmaceutical compositions, methods of treatment, and process for making the modulators” (priority 2018, dated 2024).
Read-outs that look alike come from different tables or passages of the source.

Assays:
[1] = target: CFTR-mediated chloride transport (Homo sapiens, UniProt P13569); format: cell-based; settings: enteroid cells incubated with test compound 18-24 hours, acute 10 μM forskolin and 300 nM Compound III; for Max. Activity: % of chloride transport with 3 μM Compound A, 3 μM Compound II and 300 nM acute Compound III triple combination control
Sequence of CFTR-mediated chloride transport (P13569 whole entry, looked up): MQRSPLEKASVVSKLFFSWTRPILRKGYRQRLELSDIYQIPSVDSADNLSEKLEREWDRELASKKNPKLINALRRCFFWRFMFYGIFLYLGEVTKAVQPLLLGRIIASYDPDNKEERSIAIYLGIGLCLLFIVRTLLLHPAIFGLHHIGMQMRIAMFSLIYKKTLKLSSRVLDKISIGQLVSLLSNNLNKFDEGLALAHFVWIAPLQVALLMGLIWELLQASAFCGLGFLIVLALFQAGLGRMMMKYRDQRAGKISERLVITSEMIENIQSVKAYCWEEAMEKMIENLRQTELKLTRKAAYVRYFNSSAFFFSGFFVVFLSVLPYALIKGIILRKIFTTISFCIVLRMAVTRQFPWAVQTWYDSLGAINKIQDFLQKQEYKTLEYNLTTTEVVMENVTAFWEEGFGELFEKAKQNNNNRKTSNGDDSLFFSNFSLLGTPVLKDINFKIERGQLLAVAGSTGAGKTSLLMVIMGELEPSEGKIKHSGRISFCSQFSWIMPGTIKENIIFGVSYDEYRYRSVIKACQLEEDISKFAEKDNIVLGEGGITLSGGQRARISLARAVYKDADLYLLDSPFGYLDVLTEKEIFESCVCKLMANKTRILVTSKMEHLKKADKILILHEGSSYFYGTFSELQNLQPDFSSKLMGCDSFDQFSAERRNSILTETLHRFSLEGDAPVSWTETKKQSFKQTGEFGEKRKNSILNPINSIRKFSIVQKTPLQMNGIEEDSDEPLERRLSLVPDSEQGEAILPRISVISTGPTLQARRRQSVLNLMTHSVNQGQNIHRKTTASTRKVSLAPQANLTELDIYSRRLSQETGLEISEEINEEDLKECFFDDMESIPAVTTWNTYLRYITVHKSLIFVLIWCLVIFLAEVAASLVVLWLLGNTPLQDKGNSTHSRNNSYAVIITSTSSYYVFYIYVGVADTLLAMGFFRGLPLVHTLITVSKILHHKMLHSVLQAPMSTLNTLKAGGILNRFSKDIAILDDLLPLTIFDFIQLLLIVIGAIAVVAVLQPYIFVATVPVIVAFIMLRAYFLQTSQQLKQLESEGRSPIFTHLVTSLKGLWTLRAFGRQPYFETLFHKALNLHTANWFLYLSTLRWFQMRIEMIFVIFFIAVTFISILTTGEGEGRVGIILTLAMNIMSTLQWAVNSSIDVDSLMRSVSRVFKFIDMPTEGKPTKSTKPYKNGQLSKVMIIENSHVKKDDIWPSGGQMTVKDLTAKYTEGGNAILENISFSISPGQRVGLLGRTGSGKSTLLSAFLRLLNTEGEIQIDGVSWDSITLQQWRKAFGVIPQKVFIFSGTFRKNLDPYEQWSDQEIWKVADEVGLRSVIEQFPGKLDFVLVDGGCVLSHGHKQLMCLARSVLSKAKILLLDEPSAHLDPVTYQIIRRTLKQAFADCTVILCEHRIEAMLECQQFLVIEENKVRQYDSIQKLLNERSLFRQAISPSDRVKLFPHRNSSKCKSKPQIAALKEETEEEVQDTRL
Outline: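 Membrane-potential fluorescence AUC over 15 min quantified CFTR chloride transport after acute forskolin (10 μM), IBMX (100 μM) and Compound III (300 nM) in chloride-free buffer. Human enteroid cells were pretreated with compound for 18–24 h; % Activity is relative to 3 μM Compound A + 3 μM Compound II + 300 nM Compound III.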

[2] = snar bond

Row | SMILES | EC50 [1] [µM] | Max. Activity [1] | further results
1 | CC1(C)CC2CCCn3ccc(n3)S(=O)(=O)NC(=O)c3ccc(-n4ccc(OCCC5C6(CC6)C56CC6)n4)nc3N1C2 (stereo not drawn) [Compound 176, 4-[3-(2-{dispiro[2.0.2.1]heptan-7-yl}ethoxy)-1H-pyrazol-1-yl]-20,20-dimethyl-10λ^6-thia-1,3,9,14,22-pentaazatetracyclo[16.2.1.111,14.02,7]docosa-2,4,6,11(22),12-pentaene-8,10,10-trione] | < 1 | +++ (+++ is >60%) | ring closure, isolated yield ([2]; from CC1(C)CC(CCCn2ccc(S(=O)(=O)NC(=O)c3ccc(-n4ccc(OCCC5C6(CC6)C56CC6)n4)nc3Cl)n2)CN1, 14-membered ring, K2CO3/CsF/3A MS, DMSO, 53.1 mM, 155.0 °C): 40%
2 | [2H]C([2H])(COc1ccn(-c2ccc3c(n2)N2C[C@@H](CCCNc4cccc(n4)S(=O)(=O)NC3=O)CC2(C)C)n1)C([2H])([2H])C1(C(F)(F)F)CC1 [Compound 287, (14S)-12,12-dimethyl-8-(3-{3-[1-(trifluoromethyl)cyclopropyl]-2,2,3,3-tetradeuterio-propoxy}-1H-pyrazol-1-yl)-2λ^6-thia-3,9,11,18,23-pentaazatetracyclo[17.3.1.111,14.05,10]tetracosa-1(22),5,7,9,19(23),20-hexaene-2,2,4-trione] | < 1 | ++ (++ is 30-60%) | ring closure, isolated yield ([2]; from [2H]C([2H])(COc1ccn(-c2ccc(C(=O)NS(=O)(=O)c3cccc(NCCC[C@@H]4CNC(C)(C)C4)n3)c(Cl)n2)n1)C([2H])([2H])C1(C(F)(F)F)CC1, 15-membered ring, K2CO3, NMP, 20.8 mM, 155.0 °C, 18.0 h): 73%
3 | CC1(C)CC2CCCCCc3ccc(nc3)S(=O)(=O)NC(=O)c3ccc(-n4ccc(OCCC5(C(F)(F)F)CC5)n4)nc3N1C2 (stereo not drawn) [Compound 143, 12,12-dimethyl-8-(3-{2-[1-(trifluoromethyl)cyclopropyl]ethoxy}-1H-pyrazol-1-yl)-2λ^6-thia-3,9,11,22-tetraazatetracyclo[18.2.2.111,14.05,10]pentacosa-1(23),5,7,9,20(24),21-hexaene-2,2,4-trione] | 1 to 3 | + (+ is <30%) | ring closure, isolated yield ([2]; from CC1(C)CC(CCCCCc2ccc(S(=O)(=O)NC(=O)c3ccc(-n4ccc(OCCC5(C(F)(F)F)CC5)n4)nc3Cl)nc2)CN1, 17-membered ring, K2CO3/CsF, DMSO, 45.1 mM, 165.0 °C, 17.0 h): 11%
4 | CC1(C)CC2CCCCc3ccc(cc3)S(=O)(=O)NC(=O)c3ccc(-n4ccc(OCCC5(C(F)(F)F)CC5)n4)nc3N1C2 (stereo not drawn) [Compound 52, 12,12-dimethyl-8-(3-{2-[1-(trifluoromethyl)cyclopropyl]ethoxy}-1H-pyrazol-1-yl)-2λ^6-thia-3,9,11-triazatetracyclo[17.2.2.111,14.05,10]tetracosa-1(21),5,7,9,19,22-hexaene-2,2,4-trione] | < 1 | ++ (++ is 30-60%) | ring closure, isolated yield ([2]; from CC1(C)CC(CCCCc2ccc(S(=O)(=O)NC(=O)c3ccc(-n4ccc(OCCC5(C(F)(F)F)CC5)n4)nc3Cl)cc2)CN1, 16-membered ring, K2CO3/CsF/3A MS, DMSO, 37.4 mM, 155.0 °C): 26%
5 | [2H]C([2H])(CCOc1ccn(-c2ccc3c(n2)N2C[C@@H](CCCNc4cccc(n4)S(=O)(=O)NC3=O)CC2(C)C)n1)C1(C(F)(F)F)CC1 [Compound 269, (14S)-12,12-Dimethyl-8-(3-{3-[1-(trifluoromethyl)cyclopropyl]-3,3-dideuterio-propoxy}-1H-pyrazol-1-yl)-2λ^6-thia-3,9,11,18,23-pentaazatetracyclo[17.3.1.111,14.05,10]tetracosa-1(22),5(10),6,8,19(23),20-hexaene-2,2,4-trione] | < 1 | +++ (+++ is >60%) | ring closure, isolated yield ([2]; from [2H]C([2H])(CCOc1ccn(-c2ccc(C(=O)NS(=O)(=O)c3cccc(NCCC[C@@H]4CN(C(=O)OC(C)(C)C)C(C)(C)C4)n3)c(Cl)n2)n1)C1(C(F)(F)F)CC1, 15-membered ring, TFA/DCM, then K2CO3/3A MS, DMSO, 30.5 mM, 150.0 °C, 2 steps): 24%
6 | CC1(C)CC2CNc3cccc(n3)S(=O)(=O)NC(=O)c3ccc(-n4ccc(OCCC5(C(F)(F)F)CC5)n4)nc3N1C2 (stereo not drawn) [Compound 17, 6,6-dimethyl-10-(3-{2-[1-(trifluoromethyl)cyclopropyl]ethoxy}-1H-pyrazol-1-yl)-16λ^6-thia-2,7,9,15,21-pentaazatetracyclo[15.3.1.14,7.08,13]docosa-1(20),8,10,12,17(21),18-hexaene-14,16,16-trione] | 1 to 3 | ++ (++ is 30-60%) | ring closure, isolated yield ([2]; from CC(C)(C)OC(=O)N1CC(CNc2cccc(S(=O)(=O)NC(=O)c3ccc(-n4ccc(OCCC5(C(F)(F)F)CC5)n4)nc3Cl)n2)CC1(C)C, 13-membered ring, K2CO3/CsF/3A MS, DMSO, 45.0 mM, 155.0 °C, 2 steps): 57%
7 | [2H]C([2H])(COc1ccn(-c2ccc3c(n2)N2C[C@@H](CCCNc4cccc(n4)S(=O)(=O)NC3=O)CC2(C)C)n1)C1C2(CC2)C12CC2 [Compound 252, (14S)-8-[3-(2-{dispiro[2.0.2.1]heptan-7-yl}-2,2-dideuterio-ethoxy)-1H-pyrazol-1-yl]-12,12-dimethyl-2λ^6-thia-3,9,11,18,23-pentaazatetracyclo[17.3.1.111,14.05,10]tetracosa-1(22),5,7,9,19(23),20-hexaene-2,2,4-trione] | < 1 | +++ (+++ is >60%) | ring closure, isolated yield ([2]; from 2-chloro-6-[3-(2,2-dideuterio-2-dispiro[2.0.2.1]heptan-7-yl-ethoxy)pyrazol-1-yl]-N-[[3-[(3S)-5,5-dimethylpyrrolidin-3-yl]propylamino]-2-pyridyl]sulfonyl]pyridine-3-carboxamide (trifluoroacetate salt), 15-membered ring, K2CO3, NMP, 21.6 mM, 150.0 °C): 85%
8 | CN1CCCC2CN(c3nc(-n4ccc(OCCC5(C(F)(F)F)CC5)n4)ccc3C(=O)NS(=O)(=O)c3ccc1nc3)C(C)(C)C2 (stereo not drawn) [Compound 140, 12,12,18-Trimethyl-8-(3-{2-[1-(trifluoromethyl)cyclopropyl]ethoxy}-1H-pyrazol-1-yl)-2λ^6-thia-3,9,11,18,20-pentaazatetracyclo[17.2.2.111,14.05,10]tetracosa-1(22),5,7,9,19(23),20-hexaene-2,2,4-trione] | < 1 | ++ (++ is 30-60%) | ring closure, isolated yield ([2]; from CN(CCCC1CNC(C)(C)C1)c1ccc(S(=O)(=O)NC(=O)c2ccc(-n3ccc(OCCC4(C(F)(F)F)CC4)n3)nc2Cl)cn1, 16-membered ring, K2CO3/CsF, DMSO, 10.2 mM, 200.0 °C, 1.5 h): 12%
9 | CC1(C)CCC2CCCNc3cccc(n3)S(=O)(=O)NC(=O)c3ccc(-n4ccc(OCCC5(C(F)(F)F)CC5)n4)nc3N21 (stereo not drawn) [Compound 16, 12,12-dimethyl-8-(3-{2-[1-(trifluoromethyl)cyclopropyl]ethoxy}-1H-pyrazol-1-yl)-2λ^6-thia-3,9,11,19,24-pentaazatetracyclo[18.3.1.05,10.011,15]tetracosa-1(23),5,7,9,20(24),21-hexaene-2,2,4-trione] | < 1 | ++ (++ is 30-60%) | ring closure, isolated yield ([2]; from CC1(C)CCC(CCCNc2cccc(S(=O)(=O)NC(=O)c3ccc(-n4ccc(OCCC5(C(F)(F)F)CC5)n4)nc3Cl)n2)N1, 14-membered ring, K2CO3/CsF, DMSO, 84.1 mM, 150.0 °C): 58%
10 | CC1(C)CC2CCCCn3ccc(n3)S(=O)(=O)NC(=O)c3ccc(-n4ccc(OCCC5(C(F)(F)F)CC5)n4)nc3N1C2 (stereo not drawn) [Compound 39, 21,21-dimethyl-4-(3-{2-[1-(trifluoromethyl)cyclopropyl]ethoxy}-1H-pyrazol-1-yl)-10λ^6-thia-1,3,9,14,23-pentaazatetracyclo[17.2.1.111,14.02,7]tricosa-2,4,6,11(23),12-pentaene-8,10,10-trione] | 1 to 3 | +++ (+++ is >60%) | ring closure, isolated yield ([2]; from CC(C)(C)OC(=O)N1CC(CCCCn2ccc(S(=O)(=O)NC(=O)c3ccc(-n4ccc(OCCC5(C(F)(F)F)CC5)n4)nc3Cl)n2)CC1(C)C, 15-membered ring, HCl (Boc off), K2CO3/CsF/3A MS, DMSO, 63.7 mM, 150.0 °C, 2 steps): 37%
11 | CC1(C)CC2CCCNc3cccc(n3)S(=O)(=O)NC(=O)c3ccc(-n4ccc(OCCC5(C(F)(F)F)CC5)n4)nc3N1C2 (racemic) [Compound 12, 12,12-dimethyl-8-(3-{2-[1-(trifluoromethyl)cyclopropyl]ethoxy}-1H-pyrazol-1-yl)-2λ^6-thia-3,9,11,18,23-pentaazatetracyclo[17.3.1.111,14.05,10]tetracosa-1(23),5(10),6,8,19,21-hexaene-2,2,4-trione] | < 1 | +++ (+++ is >60%) | ring closure, isolated yield ([2]; from 2-chloro-N-[[6-[3-(5,5-dimethylpyrrolidin-3-yl)propylamino]-2-pyridyl]sulfonyl]-6-[3-[2-[1-(trifluoromethyl)cyclopropyl]ethoxy]pyrazol-1-yl]pyridine-3-carboxamide (dihydrochloride salt), 15-membered ring, K2CO3/CsF, NMP, 144.7 mM, 150.0 °C): 67%
12 | CC1(C)CC2CCCCOc3ccc(cn3)S(=O)(=O)NC(=O)c3ccc(-n4ccc(OCCC5(C(F)(F)F)CC5)n4)nc3N1C2 (stereo not drawn) [Compound 94, 12,12-dimethyl-8-(3-{2-[1-(trifluoromethyl)cyclopropyl]ethoxy}-1H-pyrazol-1-yl)-19-oxa-2λ^6-thia-3,9,11,21-tetraazatetracyclo[18.2.2.111,14.05,10]pentacosa-1(23),5,7,9,20(24),21-hexaene-2,2,4-trione] | > 3 | + (+ is <30%) | ring closure, isolated yield ([2]; from CC(C)(C)OC(=O)N1CC(CCCCOc2ccc(S(=O)(=O)NC(=O)c3ccc(-n4ccc(OCCC5(C(F)(F)F)CC5)n4)nc3Cl)cn2)CC1(C)C, 17-membered ring, HCl (Boc off), K2CO3/CsF/3A MS, DMSO, 59.4 mM, 150.0 °C, 2 steps): 26%
